Experimental data taken from publication PMC8631057 (Antiviral research, 2021).
Like-named read-outs stand apart in the source and are kept apart here.

Tests used:
rCedV-Luc [1] = assay: microbe, parasite or virus in culture; type: cell-based; conditions: Cedar virus, Vero C1008, 48 h, read-out: IC50 (95% CI)
in vitro = conditions: human
rCedV-Luc [2] = assay: microbe, parasite or virus in culture; type: cell-based; conditions: read-out: IC50 (95% CI)
HeV = assay: microbe, parasite or virus in culture; type: cell-based, Hendra virus; conditions: for IC50: read-out: IC50 (95% CI)
NiV-B = assay: microbe, parasite or virus in culture; type: cell-based, Nipah virus; conditions: for IC50: read-out: IC50 (95% CI)
CedV F and G = type: cell-based
Vero 76 cell line = conditions: African green monkey

Molecule CCOc1ccc(C2c3[nH]c4ccccc4c3CCN2C(=O)C2CCC2)cc1 (stereo not drawn) [Compound C1, cyclobutyl(1-(4-ethoxyphenyl)-1,3,4,9-tetrahydro-2H-pyrido[3,4-b]indol-2-yl)methanone] has an IC50 (rCedV-Luc [1]) of 7.82 µM, a CC50 (in vitro) of over 100 µM and an IC50 (rCedV-Luc [2]; Cedar virus, HEK-293T, 48 h) of 3.06 µM. For the same molecule, the “Selectivity index (SI)” value (HeV) was over 10, the IC50 (HeV; Henipavirus hendraense, Vero 76, 48 h) was 9.87 µM and the “Selectivity index (SI)” value (NiV-B) was over 55. The IC50 (NiV-B; Henipavirus nipahense, Vero 76, 48 h) was 1.83 µM and the “Inhibition of cell-cell membrane fusion activity” value (CedV F and G) was “did not inhibit cell-cell membrane fusion activity”.

For “(1-(6-(cyclopropylamino)pyrimidin-4-yl)piperidin-4-yl)-N-(2-(thiophen-2-yl)ethyl)propenamide [Compound A3]”, the IC50 (rCedV-Luc [2]) was about 0.3 µM, the CC50 (HEK 293T cells) was over 100 µM and the CC50 (Vero E6 cells) was over 100 µM.

For “cyclobutyl(1-(4-ethoxyphenyl)-1,3,4,9-tetrahydro-2H-pyrido[3,4-b]indol-2-yl)methanone [Compound F1]”, the “Cytotoxicity (in words)” value (HEK 293T cells) was “mild toxicity”, the CC50 (HEK 293T cells; human) was 85.8 µM and the IC50 (HeV) was 19.6 µM. For the same molecule, the CC50 (Vero 76 cell line) was over 100 µM, the IC50 (NiV-B) was 4.15 µM and the “Inhibition of cell-cell membrane fusion activity” value (CedV F and G) was “did not inhibit cell-cell membrane fusion activity”. The CC50 (Vero E6 cells; African green monkey) was over 100 µM.

COc1ccc(Nc2nc(-c3nnn(-c4ccc(Br)cc4F)c3C)ns2)cc1 [Z, 3-(1-(4-bromo-2-fluorophenyl)-5-methyl-1H-1,2,3-triazol-4-yl)-N-(4-methoxyphenyl)-1,2,4-thiadiazol-5-amine] gave an IC50 (rCedV-Luc [1]) of 0.41 µM, a CC50 (in vitro) of over 100 µM and an IC50 (rCedV-Luc [2]; Cedar virus, HEK-293T, 48 h) of 0.13 µM.
